{"source": "patent US10851152B2", "about": "“Polymerized peptide and gel having collagen-like structure” (WASEDA UNIVERSITY, priority 2015, dated 2020)", "key": {"[1]": {"test_system": "HDF", "test": "Cell adhesion assay on coated 96-well plate, HDF", "type": "cell-based, Human", "conditions": "37° C., 5% CO2, 60 min", "procedure": "(§1) D-MEM High Glucose, D-MEM Low Glucose and 0.5% trypsin/EDTA were purchased from Wako Pure Chemical Industries, Ltd. (Osaka); FBS, penicillin. streptomycin (100×) were purchased from Invitrogen (Thermo Fisher Scientific corporation). Human mammary gland cancer (MDA-MB-231) was purchased from ATCC; Human skin fibroblasts (HDF) were purchased from Cell Applications. MDA-MB-231 was cultured using DMEM High Glucose (10% FBS, 100 Units/ml penicillin, 100 μg/ml streptomycin), and then maintained; and HDF was cultured using DMEM Low Glucose (10% FBS, 100 Units/ml penicillin, 100 μg/ml streptomycin), and then maintained. When used in cell adhesion assay and Western blotting, the cells were treated with 0.05% trypsin/EDTA, and then collected in a 15 ml tube to be subjected to centrifugal treatment at 1,200 rpm for four minutes. After the removal of the supernatant, the cells were suspended with an incubation medium by which the cells were incubated at 37° C. for 20 to 30 min and then recovered. Such cell suspension was used for cell adhesion assay and Western blotting.\n(§2) Type I collagen (KOKEN CO., LTD, Tokyo) and BSA (Jackson Immuno Research Laboratories Inc., USA), in an aqueous solution as 30 μg/ml, were added to a 96-well plate (Nunc MicroWell 96-Well Microplates) by an amount of 50 μl/well, followed by drying the sample for two nights. Collagen-like peptides having no Cys residue were prepared as aqueous solutions of 1 to 3 mg/ml, and then heated at 95° C. for 5 min, followed by storing them at 4° C. overnight to form the triple-helical structure. Then, they were diluted to 30 μg/ml, and then added to a 96-well plate in an amount of 50 μl/well followed by drying them for two nights. Collagen-like peptides having Cys residues were dissolved in a degassed 0.05% (v/v) TFA aqueous solution, followed by preparing to a concentration of 300 μg/ml, and then heating the sample at 80° C. for 5 min. […] Further, a mineral oil was layered on the peptide solution, and such peptide solution was then oxidized at room temperature until thiol could no longer be detected by Ellman's test. […]"}, "[2]": {"test_system": "MDA-MB-231", "test": "Cell adhesion assay on coated 96-well plate, MDA-MB-231", "type": "cell-based, Human", "procedure": "as §1, §2"}, "[3]": {"test": "Remaining thiol group (Ellman's reagent) in oxidative polymerization reaction", "type": "physicochemical", "conditions": "SH amount at 0 hour being 100%; 10% DMSO, peptide 1% (w/v); 74 hours", "procedure": "Degassed water was used to prepare a peptide solution having a concentration of 1.11% (w/v), and the solution was then put into a PCR tube. After heating this solution at 80° C. for 5 min, it was then left to sand still at 4° C. overnight. By adding DMSO to this solution, there was prepared a peptide solution having a final concentration of 10% DMSO, peptide 1% (w/v). The PCR tube was then filled with a mineral oil in a way such that the mineral oil covered the surface of the solution. In every measurement, the mineral oil was eliminated from the peptide solution to prepare a peptide solution for oxidation monitoring. Ellman's reagent was prepared in a way such that 9 mg/ml of DTNB was present in 50 mM of a phosphate buffer solution (pH 8.4). 33 mM phosphate buffer solution (pH 8.4) and Ellman's reagent 1.5 mg/ml were left to stand for […], then a light absorbance was then measured after a solution with a final concentration of peptide 0.167 mg/ml. Recorded were changes in absorbance with time, with a moment when DMSO was added being a starting point (0 hour). Since the Ellman's reagent generates 5-mercapto-2-nitrobenzoate (λ max=412 nm, ε=1.55×10^4) depending on the amount of thiol groups (referred to as “SH groups” hereunder) in the peptide, measured was a absorbance at 412 nm. After the measurement, optical path length was compensated by measuring absorbance at 997 nm and 900 nm."}, "[4]": {"test": "CD spectrum measurement of triple-helical structure and its thermal stability", "type": "physicochemical", "conditions": "1 mg/ml in 0.05% TFA/H2O; measured at 4° C., 37° C. and 80° C.", "procedure": "The structure of the peptide was confirmed by CD spectrum (circular dichroism spectrometer J-820, JASCO Corporation). A peptide powder was dissolved in a degassed 0.05% TFA/H2O to prepare a solution of 1 mg/ml. After heating at 80° C. for 5 min, the solution was left to stand at 4° C. overnight to cause refolding as a measurement sample. CD spectrum was measured under the conditions of: temperature 4° C., 37° C., 80° C.; cell length 0.05 cm; sensitivity standard (100 mdeg); measurement wavelength 250 to 190 nm; data collection interval 0.2 nm; scanning speed 50 nm/min; response 0.5 sec; band width 1 nm; cumulated number 4. A signal obtained (θobs) was expressed as a residue average molar ellipticity (θmrw). θmrw was calculated by the following formula.\nA thermal stability of the triple-helical structure was observed by monitoring θmrw, 225 associated with a change in temperature. The measurement conditions were: 4 to 75° C. or 4 to 90° C.; cell length 0.05 cm; measurement wavelength 225 nm; data collection interval 0.5° C.; temperature gradient 18° C./h; sensitivity standard (100 mdeg); response 2 sec; band width 1 nm. It was determined that the triple-helical structure completely turned into a random coil structure in a region where the signal was linearly diminishing."}, "[5]": {"test": "Hydrogel formation judged by holding of a stainless ball", "type": "physicochemical", "conditions": "1% (w/v) peptide, 10% DMSO, room temperature, up to three days", "procedure": "Degassed water was used to prepare a peptide solution having a concentration of 1.11% (w/v) or 1.66% (w/v), and the solution was then put into a PCR tube. After heating this solution at 80° C. for 5 min using a polymerase chain reaction (PCR) machine (TaKaRa PCR Thermal Cycler, TAKARA BIO INC.), the solution was then left to stand at 4° C. overnight. By adding DMSO and water to this solution, there was prepared a peptide solution having a concentration of 10% DMSO, 0.1 to 1.5% (w/v). The PCR tube was then filled with a mineral oil in a way such that the mineral oil covered the liquid surface, followed by allowing the solution to stand at room temperature for a given period of time to achieve a gel. Then, gel formation was determined by looking at whether a stainless ball could be held by the gel."}}, "note": "Non-standard residues stand in square brackets, D forms with d. No end group written: not given here. Hyp = O=C(O)[C@@H]1C[C@@H](O)CN1"}
{"substance": "Ac-G(POG)4FOGERG(POG)5-NH2 (GPPGPPGPPGPPGFPGERGPPGPPGPPGPPGPPG; HELM PEPTIDE1{[ac].G.P.[Hyp].G.P.[Hyp].G.P.[Hyp].G.P.[Hyp].G.F.[Hyp].G.E.R.G.P.[Hyp].G.P.[Hyp].G.P.[Hyp].G.P.[Hyp].G.P.[Hyp].G.[am]}$$$$V2.0; SMILES CC(=O)NCC(=O)N1CCC[C@H]1C(=O)N1C[C@H](O)C[C@H]1C(=O)NCC(=O)N1CCC[C@H]1C(=O)N1C[C@H](O)C[C@H]1C(=O)NCC(=O)N1CCC[C@H]1C(=O)N1C[C@H](O)C[C@H]1C(=O)NCC(=O)N1CCC[C@H]1C(=O)N1C[C@H](O)C[C@H]1C(=O)NCC(=O)N[C@@H](Cc1ccccc1)C(=O)N1C[C@H](O)C[C@H]1C(=O)NCC(=O)N[C@@H](CCC(=O)O)C(=O)N[C@@H](CCCNC(=N)N)C(=O)NCC(=O)N1CCC[C@H]1C(=O)N1C[C@H](O)C[C@H]1C(=O)NCC(=O)N1CCC[C@H]1C(=O)N1C[C@H](O)C[C@H]1C(=O)NCC(=O)N1CCC[C@H]1C(=O)N1C[C@H](O)C[C@H]1C(=O)NCC(=O)N1CCC[C@H]1C(=O)N1C[C@H](O)C[C@H]1C(=O)NCC(=O)N1CCC[C@H]1C(=O)N1C[C@H](O)C[C@H]1C(=O)NCC(N)=O) [Soluble GFOGER]", "values": [{"measurement": "cell adhesion of HDF", "setting": "[1]", "value": "cellular adhesion was not observed"}, {"measurement": "cell adhesion of MDA-MB-231", "setting": "[2]; coated 96-well plate", "value": "cell adhesion was not observed"}]}
{"substance": "YCCGPPOGGOPOGPPOGGOPOGRPOGPPOGGOPOGCCY (YCCGPP[Hyp]GG[Hyp]P[Hyp]GPP[Hyp]GG[Hyp]P[Hyp]GRP[Hyp]GPP[Hyp]GG[Hyp]P[Hyp]GCCY; not fully specified; cysteine pairing not given here) [YCC2-Scr]", "values": [{"measurement": "ratio of SH amount", "setting": "[3]", "value": "approximately 0%"}, {"measurement": "formation of triple-helical structure (CD spectrum, positive Cotton effect at about 225 nm)", "setting": "[4]", "value": "did not form the triple-helical structure"}, {"measurement": "gel-forming capability", "setting": "[5]", "value": "did not turn into a gel"}]}
{"substance": "G(POG)7IKGHRGFSGLOG(POG)6-NH2 [Soluble KGHRGF]", "values": [{"measurement": "cell adhesion of HDF", "setting": "[1]", "value": "cellular adhesion was not observed"}]}
{"substance": "G(POG)4PRGQOGVMGFOG(POG)4-NH2 [Soluble GVMGFO]", "values": [{"measurement": "cell adhesion of HDF", "setting": "[1]", "value": "cellular adhesion was not observed"}]}
{"substance": "YCC(POG)5FOGERG(POG)5CCY (YCCP[Hyp]GP[Hyp]GP[Hyp]GP[Hyp]GP[Hyp]GF[Hyp]GERGP[Hyp]GP[Hyp]GP[Hyp]GP[Hyp]GP[Hyp]GCCY; not fully specified; cysteine pairing not given here) [YCC2-GFOGER]", "values": [{"measurement": "content of YCC2-GFOGER giving the same level of cell adhesion capability as collagen", "setting": "[2]; mixed polymerized peptide of YCC2 and YCC2-GFOGER, MDA-MB-231, 180 min", "value": 30, "unit": "%"}]}
